The results in this text go back to ChEMBL document CHEMBL1201862, “PubChem BioAssay data set” (2004).

Assay [1] addresses Acyl-homoserine lactone acylase PvdQ (Pseudomonas aeruginosa (strain LESB58), UniProt Q9I194). Nature of the assay: P. aeruginosa PvdQ acylase inhibitors, dose response, biochemical, fluorescence, plate reader and imaging, cherry-picks (AID 493231).
The target in assay [2] is T1, RNA-binding protein pos-1 (Caenorhabditis elegans, UniProt G5EF15).
T1 sequence (G5EF15 whole entry): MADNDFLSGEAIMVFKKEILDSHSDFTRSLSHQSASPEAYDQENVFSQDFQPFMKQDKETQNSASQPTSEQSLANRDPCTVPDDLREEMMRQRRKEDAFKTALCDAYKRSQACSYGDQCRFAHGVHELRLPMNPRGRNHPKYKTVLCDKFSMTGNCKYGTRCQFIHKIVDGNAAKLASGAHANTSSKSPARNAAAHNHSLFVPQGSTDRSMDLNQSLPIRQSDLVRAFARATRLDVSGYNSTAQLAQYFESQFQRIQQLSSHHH
As to the kind of experiment: inhibitors of POS-1/mex-3 RNA binding, dose response, biochemical, fluorescence polarization (AID 1964).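 Further: purified POS-1 fused to maltose binding protein made in E. coli; potency of compounds blocking POS-1 binding to fluorescent RNA.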

Assay [3] addresses T2, Zinc finger protein mex-5 (Caenorhabditis elegans, UniProt Q9XUB2).
T2 sequence (Q9XUB2 whole entry): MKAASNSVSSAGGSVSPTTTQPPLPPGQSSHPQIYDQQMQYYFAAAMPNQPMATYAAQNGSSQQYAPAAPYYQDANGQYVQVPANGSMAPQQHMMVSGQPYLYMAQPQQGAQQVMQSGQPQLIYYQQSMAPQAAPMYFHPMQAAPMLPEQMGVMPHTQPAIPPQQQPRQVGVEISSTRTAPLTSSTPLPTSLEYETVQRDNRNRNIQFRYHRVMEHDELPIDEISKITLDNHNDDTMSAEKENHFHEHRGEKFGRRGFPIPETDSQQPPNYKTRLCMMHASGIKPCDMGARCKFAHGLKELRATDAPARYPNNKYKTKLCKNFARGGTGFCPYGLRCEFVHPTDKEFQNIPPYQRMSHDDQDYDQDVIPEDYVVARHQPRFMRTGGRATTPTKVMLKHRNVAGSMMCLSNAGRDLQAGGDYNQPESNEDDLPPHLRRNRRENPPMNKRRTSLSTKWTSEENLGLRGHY
Nature of the assay: MEX-5/TCR-2 RNA interaction inhibitors, dose response, biochemical, C. elegans, fluorescence polarization (AID 1960).

Assay [4] has as its target Glucose-6-phosphate 1-dehydrogenase (Homo sapiens, UniProt P11413). Nature of the assay: human G6PD enzyme inhibitors, dose response, selectivity assay for P. falciparum G6PD inhibitor project, biochemical, fluorescence (AID 504792). Type of assay: functional.
Assay [5] has as its target T3, Hexokinase HKDC1 (Homo sapiens, UniProt Q2TB90).
T3 sequence (Q2TB90 whole entry): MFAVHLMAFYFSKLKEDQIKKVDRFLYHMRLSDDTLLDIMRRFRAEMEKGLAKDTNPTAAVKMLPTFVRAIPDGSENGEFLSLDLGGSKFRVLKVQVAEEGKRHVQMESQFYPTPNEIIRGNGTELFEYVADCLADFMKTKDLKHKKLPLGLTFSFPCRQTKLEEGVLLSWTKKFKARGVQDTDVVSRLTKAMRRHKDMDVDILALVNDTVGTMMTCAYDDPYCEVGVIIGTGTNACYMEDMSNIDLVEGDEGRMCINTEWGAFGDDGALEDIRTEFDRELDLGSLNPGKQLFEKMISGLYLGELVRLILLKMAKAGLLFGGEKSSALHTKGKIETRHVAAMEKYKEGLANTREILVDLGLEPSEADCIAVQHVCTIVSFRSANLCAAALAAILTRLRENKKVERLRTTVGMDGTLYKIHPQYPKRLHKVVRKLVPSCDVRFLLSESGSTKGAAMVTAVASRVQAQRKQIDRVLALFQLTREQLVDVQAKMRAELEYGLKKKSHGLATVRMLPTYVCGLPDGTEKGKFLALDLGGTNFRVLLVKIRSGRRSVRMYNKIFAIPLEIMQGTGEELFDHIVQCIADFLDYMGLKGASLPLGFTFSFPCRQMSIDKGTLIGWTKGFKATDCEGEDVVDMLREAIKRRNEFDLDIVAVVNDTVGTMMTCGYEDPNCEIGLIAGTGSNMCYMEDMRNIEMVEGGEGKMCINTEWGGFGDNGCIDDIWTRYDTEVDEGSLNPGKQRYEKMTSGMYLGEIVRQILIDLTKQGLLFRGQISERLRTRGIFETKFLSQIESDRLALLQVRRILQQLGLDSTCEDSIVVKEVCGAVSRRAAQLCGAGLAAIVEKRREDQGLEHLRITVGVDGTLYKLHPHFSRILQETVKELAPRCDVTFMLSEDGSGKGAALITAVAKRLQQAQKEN
Nature of the assay: HKDC1 hexokinase inhibitors, dose response, biochemical, W721R variant (AID 504729). The assay is classed as functional.

For assay [6], the target named is T4, Polyadenylate-binding protein 1 (Homo sapiens, UniProt P11940). As to the kind of experiment: PABP1 MLLE–PAM2 interaction inhibitors, dose response, miRNA deadenylation inhibitor project, biochemical, fluorescence polarization, Cy5-PAM2 peptide, secondary (AID 602260). The assay is classed as functional. Particulars: read-out: IC50_Mean. On the technique in general: In fluorescence polarisation assays a small probe gives low polarisation when free and higher when bound to something large.

In assay [7] the target is T4, Polyadenylate-binding protein 1. Nature of the assay: PABP1 MLLE–PAM2 binding inhibitor potency, dose response, biochemical, fluorescence polarization, FITC-PAM2 peptide (AID 602259). Type of assay: functional. Particulars: read-out: IC50_Mean.
Assay [8] deals with HEK293. As to the kind of experiment: PMA/Ionomycin induced NF-kB luciferase assay in 293- NF-kB-Luc stable cells. [Related pubchem assays: 1299, 1270, 1295, 1375, 1287, 1281, 1293, 1291, 1289, 1280, 465, 1364, 1282, 1372, 1365, 1370, 1367, 1366, 1269, 1373, 1292, 1290, 1302, 1371, 1283, 1271, 1294, 1374, 1368, 1369 ]. Type of assay: functional, cell-based. Particulars: Homo sapiens.

For assay [9], the target named is Luciferin 4-monooxygenase (Photinus pyralis, UniProt P08659). As to the kind of experiment: In vitro luciferase assay using purified luciferase. [Related pubchem assays: 1299, 1270, 1295, 1375, 1287, 1281, 1293, 1291, 1289, 1280, 465, 1364, 1282, 1372, 1365, 1370, 1367, 1366, 1266, 1373, 1292, 1290, 1302, 1371, 1283, 1271, 1294, 1374, 1368, 1369 ].
The test system of assay [10] is HEK293. Nature of the assay: PMA/Ionomycin-induced IL-8 production in HEK293- NF-kB-Luc stable cells. [Related pubchem assays: 1299, 1295, 1375, 1287, 1281, 1293, 1291, 1289, 1280, 465, 1364, 1282, 1372, 1365, 1367, 1366, 1266, 1269, 1373, 1292, 1290, 1302, 1371, 1283, 1271, 1294, 1374, 1368, 1369 ]. Type of assay: functional, cell-based. Particulars: Homo sapiens.

The test system of assay [11] is HEK293. Nature of the assay: Cytotoxicity assay in HEK293 cells. [Related pubchem assays (depositor defined):AID1266, AID1269, AID1270, AID1271, AID1280, AID1281, AID1282, AID1283, AID1287, AID1289, AID1290, AID1291, AID1292, AID1293, AID1294, AID1295, AID1299, AID1302, AID1364, AID1365, AID1366, AID1367, AID1369, AID1370, AID1371, AID1372, AID1373, AID1374, AID1375, AID1384 …. The assay is classed as functional, cell-based. Particulars: Homo sapiens.

For assay [12], the system named is HEK293. As to the kind of experiment: TNF Induced NF-kB Luciferase in 293-NF-kB-Luc Stable Cells. [Related pubchem assays: 1266, 1299, 1269, 1373, 1292, 1290, 1302, 1371, 1283, 1270, 1295, 1271, 1375, 1294, 1374, 1281, 1293, 1291, 1289, 1280, 465, 1368, 1364, 1282, 1372, 1365, 1369, 1370, 1367, 1366 ]. The assay is classed as functional, cell-based. Particulars: Homo sapiens.

Assay [13] deals with T5, Scavenger receptor class B member 1 (Mus musculus, UniProt Q61009).
T5 sequence (Q61009 whole entry): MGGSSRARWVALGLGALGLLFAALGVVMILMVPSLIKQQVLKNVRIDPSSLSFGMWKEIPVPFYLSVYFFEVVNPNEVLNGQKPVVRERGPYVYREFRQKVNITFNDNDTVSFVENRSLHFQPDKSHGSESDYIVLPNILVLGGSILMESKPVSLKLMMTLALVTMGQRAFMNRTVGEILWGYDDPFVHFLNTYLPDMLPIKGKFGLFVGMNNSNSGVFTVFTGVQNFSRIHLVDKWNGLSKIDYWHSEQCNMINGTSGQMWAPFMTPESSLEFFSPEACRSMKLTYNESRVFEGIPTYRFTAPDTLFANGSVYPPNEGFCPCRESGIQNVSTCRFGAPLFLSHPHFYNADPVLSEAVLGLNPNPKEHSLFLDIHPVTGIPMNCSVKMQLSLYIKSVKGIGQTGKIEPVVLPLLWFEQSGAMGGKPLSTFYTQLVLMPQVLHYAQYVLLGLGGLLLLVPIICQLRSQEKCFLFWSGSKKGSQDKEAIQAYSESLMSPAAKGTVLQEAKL
As to the kind of experiment: inhibitors of SR-BI mediated HDL lipid uptake, dose response, ldlA[mSR-BI] cells, fluorescence, cherry pick (AID 493194).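 Further: cellular uptake of fluorescent DiI-labeled HDL measured as cell fluorescence.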 Type of assay: functional, cell-based.

For assay [14], the target named is Voltage-gated N-type calcium channel alpha-1B subunit/Amyloid beta A4 precursor protein-binding family A member 1 (Homo sapiens, UniProt Q00975+Q02410). Nature of the assay: disruptors of Mint-PDZ/N-type channel peptide interaction – biochemical, HTRF, set 2, SAR follow-up (AID 434980). The assay is classed as functional. Background: TR-FRET usually uses a lanthanide donor and a delayed reading to cut background.

Assay [15] deals with Melanin-concentrating hormone receptor 1 (Homo sapiens, UniProt Q99705). As to the kind of experiment: Late-stage fluorescence-based counterscreen for antagonists of the G-protein coupled receptor 7 (GPR7): cell-based dose response assay to identify antagonists of the melanin-concentrating hormone receptor 1 (MCHR1). [Related pubchem assays (depositor defined):AID1861, AID1880, AID1952, AID2148, AID2251, AID2257, AID485339]. Type of assay: functional.

Active and inactive are the calls of the source.

What is called AC50 is the concentration at which the activity in the assay is half-maximal. Broadly, the EC50 is the concentration at which the effect is half-maximal.

T4 sequence (P11940 whole entry): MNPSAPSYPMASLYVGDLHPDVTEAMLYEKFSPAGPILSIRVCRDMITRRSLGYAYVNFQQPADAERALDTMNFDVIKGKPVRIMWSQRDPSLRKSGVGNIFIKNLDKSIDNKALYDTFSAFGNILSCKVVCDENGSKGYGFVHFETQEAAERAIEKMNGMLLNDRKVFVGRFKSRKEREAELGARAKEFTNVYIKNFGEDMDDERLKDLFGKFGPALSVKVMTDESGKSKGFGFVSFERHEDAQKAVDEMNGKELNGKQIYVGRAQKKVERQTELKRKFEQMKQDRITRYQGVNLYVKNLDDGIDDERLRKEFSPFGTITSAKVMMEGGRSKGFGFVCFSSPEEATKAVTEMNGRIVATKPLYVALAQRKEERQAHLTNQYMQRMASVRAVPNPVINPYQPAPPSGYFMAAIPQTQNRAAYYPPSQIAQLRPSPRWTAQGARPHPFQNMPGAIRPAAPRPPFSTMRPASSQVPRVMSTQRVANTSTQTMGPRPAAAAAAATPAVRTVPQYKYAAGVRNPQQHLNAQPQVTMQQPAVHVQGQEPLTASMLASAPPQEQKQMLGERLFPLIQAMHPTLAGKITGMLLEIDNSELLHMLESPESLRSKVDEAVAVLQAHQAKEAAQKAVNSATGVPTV
Sequence of Melanin-concentrating hormone receptor 1 (Q99705 whole entry): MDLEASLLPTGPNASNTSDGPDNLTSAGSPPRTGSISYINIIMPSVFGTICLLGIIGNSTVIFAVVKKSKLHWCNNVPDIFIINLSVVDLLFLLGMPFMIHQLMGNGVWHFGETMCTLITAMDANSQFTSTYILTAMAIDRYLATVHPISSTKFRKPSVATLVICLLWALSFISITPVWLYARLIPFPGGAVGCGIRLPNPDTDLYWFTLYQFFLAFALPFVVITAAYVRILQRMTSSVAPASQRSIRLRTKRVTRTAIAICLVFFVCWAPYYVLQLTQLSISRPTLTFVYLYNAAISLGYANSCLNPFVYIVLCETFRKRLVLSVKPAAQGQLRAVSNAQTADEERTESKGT
Sequence of Acyl-homoserine lactone acylase PvdQ (Q9I194 24-193 limits assumed): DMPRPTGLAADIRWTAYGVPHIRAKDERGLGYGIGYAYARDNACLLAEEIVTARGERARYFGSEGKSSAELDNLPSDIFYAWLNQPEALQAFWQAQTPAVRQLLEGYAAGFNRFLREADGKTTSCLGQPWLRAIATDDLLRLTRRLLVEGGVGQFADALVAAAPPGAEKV
Sequence of Acyl-homoserine lactone acylase PvdQ (Q9I194 217-762 limits assumed): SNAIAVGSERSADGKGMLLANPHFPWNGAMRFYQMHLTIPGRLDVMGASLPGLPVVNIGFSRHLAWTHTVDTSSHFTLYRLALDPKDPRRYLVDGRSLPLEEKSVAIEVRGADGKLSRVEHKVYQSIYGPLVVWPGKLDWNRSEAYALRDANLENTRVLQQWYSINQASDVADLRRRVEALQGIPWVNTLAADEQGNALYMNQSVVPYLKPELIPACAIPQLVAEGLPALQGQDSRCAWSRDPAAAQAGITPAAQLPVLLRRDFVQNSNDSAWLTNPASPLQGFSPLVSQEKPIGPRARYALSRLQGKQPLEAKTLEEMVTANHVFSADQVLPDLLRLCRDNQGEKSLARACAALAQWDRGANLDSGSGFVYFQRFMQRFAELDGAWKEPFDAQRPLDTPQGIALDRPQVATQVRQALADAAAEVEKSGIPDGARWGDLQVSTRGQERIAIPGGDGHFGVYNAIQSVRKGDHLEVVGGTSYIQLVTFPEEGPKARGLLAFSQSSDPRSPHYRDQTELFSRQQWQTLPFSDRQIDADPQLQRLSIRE
Sequence of Luciferin 4-monooxygenase (P08659 whole entry): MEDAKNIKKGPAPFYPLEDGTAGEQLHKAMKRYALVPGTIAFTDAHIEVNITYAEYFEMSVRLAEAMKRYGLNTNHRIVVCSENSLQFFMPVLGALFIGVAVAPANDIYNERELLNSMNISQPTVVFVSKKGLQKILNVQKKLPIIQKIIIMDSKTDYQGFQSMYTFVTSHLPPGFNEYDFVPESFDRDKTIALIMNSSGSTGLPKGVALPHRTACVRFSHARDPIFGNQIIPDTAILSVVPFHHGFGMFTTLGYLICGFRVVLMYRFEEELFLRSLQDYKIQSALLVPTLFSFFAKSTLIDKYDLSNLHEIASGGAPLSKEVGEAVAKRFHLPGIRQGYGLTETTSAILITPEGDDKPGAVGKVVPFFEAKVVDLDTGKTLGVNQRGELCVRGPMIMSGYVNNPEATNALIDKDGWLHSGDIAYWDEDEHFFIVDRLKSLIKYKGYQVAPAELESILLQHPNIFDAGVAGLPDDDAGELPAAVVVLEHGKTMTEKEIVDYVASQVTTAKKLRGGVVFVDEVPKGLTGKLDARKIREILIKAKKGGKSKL
Sequence of Glucose-6-phosphate 1-dehydrogenase (P11413 whole entry): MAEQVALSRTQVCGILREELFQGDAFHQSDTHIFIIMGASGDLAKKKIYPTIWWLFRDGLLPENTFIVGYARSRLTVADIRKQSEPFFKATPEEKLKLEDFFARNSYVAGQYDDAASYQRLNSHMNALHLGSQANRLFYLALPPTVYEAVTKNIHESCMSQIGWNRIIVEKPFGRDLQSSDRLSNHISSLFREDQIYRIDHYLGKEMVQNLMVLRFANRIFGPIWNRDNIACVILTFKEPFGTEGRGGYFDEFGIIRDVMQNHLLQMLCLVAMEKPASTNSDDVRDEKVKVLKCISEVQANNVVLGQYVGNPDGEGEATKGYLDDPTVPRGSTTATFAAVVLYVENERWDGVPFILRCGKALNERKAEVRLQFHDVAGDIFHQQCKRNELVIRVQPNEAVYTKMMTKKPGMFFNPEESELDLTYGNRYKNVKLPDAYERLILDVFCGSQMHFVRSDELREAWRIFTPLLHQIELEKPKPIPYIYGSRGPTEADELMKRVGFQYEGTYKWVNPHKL

As to `N#CC(c1ccc(Cl)cc1)c1ccc(Cl)nn1` (stereo not given), the AC50 in assay [1] was 0.991 µM (active).
`CN(C)Cc1cc(O)c(CN(C)C)cc1O`: the EC50 in assay [2] is 22.3 µM (inconclusive); in [3], 5.82 µM (active). The IC50 in assay [4] was 34.7 µM (inactive); in assay [5] it was 49.6 µM (inactive); in [6], > 66 µM (inactive); in assay [7], 50.7 µM (inactive).
For `COc1cc(NC(=O)c2cccc3c2C(=O)N(Cc2cccnc2)C3)cc(OC)c1OC`, the EC50 is 0.744 µM (active) in [8]; > 8 µM (not active) in assay [9]; 13.9 µM (not active) in assay [10]; > 8 µM (inactive) in assay [11]; > 8 µM (not active) in assay [12].
For `Cc1ccccc1CN1CCN(C(=O)c2ccc(S(=O)(=O)NCc3ccco3)cc2)CC1`, the AC50 in [13] is 0.092 µM (active).
For the compound `O=C(c1cc(-c2ccco2)nc2ccccc12)N1CCC(N2CCOCC2)CC1`, in assay [14], the IC50 was > 56.8 µM (inactive).
Take `CCOC(=O)c1ccc(-n2ncc(Cl)c(Oc3ccc(OC)cc3)c2=O)cc1`: the IC50 in assay [15] was 4 µM (active).
